Measurements: US10000507B2, “Furo- and thieno-pyridine carboxamide compounds useful as pim kinase inhibitors” (Incyte Corporation, priority 2013, dated 2018)
pIC50: −log10 of the molar value.

Legend:
Format in all cases: biochemical
Pim-3 = Pim-3 (Homo sapiens (Human), UniProt Q86V86); test: Pim-3 kinase assay; conditions: 1 mM ATP, biotin-labeled BAD peptide substrate; read-out: Pim3 IC50
Summary of the method: (§1)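 Biotin-BAD peptide ([…]) phosphorylated with 1 mM ATP by 2.5 pM Pim-1 or 1.25 pM Pim-3, 1 h at 25 °C in Tris pH 7.5, MgCl2, DTT buffer. EDTA stop with anti-phospho-BAD (Ser112) antibody and AlphaScreen streptavidin donor/Protein-A acceptor beads; signal read after 1 h dark incubation.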

Pim-2 = Pim-2 (Homo sapiens (Human), UniProt Q9P1W9); test: Pim-2 kinase assay; conditions: 1 mM ATP, fluorescein-labeled CREBtide peptide substrate; read-out: Pim2 IC50
Summary of the method: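 Phosphorylated CREBtide was detected by terbium anti-pSer133 antibody TR-FRET after EDTA quench and 30 min at room temperature. Reactions ran 2 h at 25 °C with 1 mM ATP, 0.05 μM fluorescein-labelled substrate and 1 nM enzyme in pH 7.5 Tris buffer.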

Pim-1 = Pim-1 (Homo sapiens (Human), UniProt P11309); test: Pim-1 kinase assay; conditions: 1 mM ATP, biotin-labeled BAD peptide substrate; read-out: Pim1 IC50
Summary of the method: as §1

Sequence of Pim-2 (Q9P1W9 whole entry): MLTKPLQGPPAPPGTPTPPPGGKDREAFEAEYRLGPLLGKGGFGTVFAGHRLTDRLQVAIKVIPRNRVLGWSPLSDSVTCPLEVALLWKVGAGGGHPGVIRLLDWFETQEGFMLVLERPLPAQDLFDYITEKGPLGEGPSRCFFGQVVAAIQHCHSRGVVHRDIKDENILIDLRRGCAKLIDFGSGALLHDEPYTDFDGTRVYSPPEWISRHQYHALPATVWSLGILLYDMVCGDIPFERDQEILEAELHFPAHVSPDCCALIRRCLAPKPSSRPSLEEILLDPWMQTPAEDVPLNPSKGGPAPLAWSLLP
Sequence of Pim-1 (P11309 whole entry): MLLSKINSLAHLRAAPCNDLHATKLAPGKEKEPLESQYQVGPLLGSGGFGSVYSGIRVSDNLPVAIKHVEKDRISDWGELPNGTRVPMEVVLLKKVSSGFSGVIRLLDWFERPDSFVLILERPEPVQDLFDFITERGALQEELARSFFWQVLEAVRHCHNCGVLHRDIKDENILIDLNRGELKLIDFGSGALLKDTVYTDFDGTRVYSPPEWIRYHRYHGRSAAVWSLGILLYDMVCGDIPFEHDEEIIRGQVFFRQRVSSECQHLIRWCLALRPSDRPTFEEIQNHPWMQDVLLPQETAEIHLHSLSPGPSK

SMILES | pIC50 (Pim-3) | pIC50 (Pim-2) | pIC50 (Pim-1)
Nc1oc2cc(C3CCOC3)cnc2c1C(=O)Nc1cnccc1N1C[C@@H](N)C[C@@H](C(F)(F)F)C1 (stereo partly drawn) [Example 123, 2-Amino-N-{4-[(3S,5R)-3-amino-5-(trifluoromethyl)piperidin-1-yl]pyridin-3-yl}-6-(tetrahydrofuran-3-yl)furo[3,2-b]pyridine-3-carboxamide] | ≥ 8.00 | ≥ 8.00 | ≥ 8.00
C[C@H]1CN(c2ccncc2NC(=O)c2c(N)oc3cc(C4CCC4)cnc23)C[C@@H](N)[C@@H]1O [Example 124, 2-Amino-N-{4-[(3R,4R,5S)-3-amino-4-hydroxy-5-methylpiperidin-1-yl]pyridin-3-yl}-6-cyclobutylfuro[3,2-b]pyridine-3-carboxamide] | ≥ 8.00 | ≥ 8.00 | ≥ 8.00
Nc1oc2cc(C3CCC3)cnc2c1C(=O)Nc1cnccc1N1C[C@@H](N)[C@H](O)[C@@H](C2CC2)C1 [Example 125, 2-Amino-N-{4-[(3R,4R,5S)-3-amino-5-cyclopropyl-4-hydroxypiperidin-1-yl]pyridin-3-yl}-6-cyclobutylfuro[3,2-b]pyridine-3-carboxamide] | ≥ 8.00 | ≥ 8.00 | ≥ 8.00
CNC(=O)c1ccc(-c2cnc3c(C(=O)Nc4cnccc4N4C[C@@H](N)C[C@@H](C(F)(F)F)C4)c(N)oc3c2)cn1 [Example 126] | ≥ 8.00 | 7.00 to 8.00 | ≥ 8.00
CNC(=O)c1ccc(-c2cnc3c(C(=O)Nc4cnccc4N4C[C@H](C)C[C@H](N)C4)c(N)oc3c2)cn1 [Example 127, 2-Amino-N-(4-((3S,5R)-3-amino-5-methylpiperidin-1-yl)pyridin-3-yl)-6-(6-(methylcarbamoyl)pyridin-3-yl)furo[3,2-b]pyridine-3-carboxamide] | ≥ 8.00 | 7.00 to 8.00 | ≥ 8.00
Nc1oc2cc(C3CC3)cnc2c1C(=O)Nc1cnccc1N1C[C@@H](N)[C@H](O)[C@@H](C2CC2)C1 [Example 128, 2-Amino-N-(4-((3R,4R,5S)-3-amino-5-cyclopropyl-4-hydroxypiperidin-1-yl)pyridin-3-yl)-6-cyclopropylfuro[3,2-b]pyridine-3-carboxamide] | ≥ 8.00 | 7.00 to 8.00 | ≥ 8.00
Nc1oc2cc(C(F)(F)F)cnc2c1C(=O)Nc1cnccc1N1C[C@@H](N)[C@H](O)[C@@H](C2CC2)C1 [Example 129, 2-Amino-N-(4-((3R,4R,5S)-3-amino-5-cyclopropyl-4-hydroxypiperidin-1-yl)pyridin-3-yl)-6-(trifluoromethyl)furo[3,2-b]pyridine-3-carboxamide] | ≥ 8.00 | 7.00 to 8.00 | ≥ 8.00
CC(C)c1cnc2c(C(=O)Nc3cnccc3[C@@H]3C[C@H](C)C[C@H](N)C3)c(N)oc2c1 [Example 130, 2-Amino-N-{4-[(1R,3S,5S)-3-amino-5-methylcyclohexyl]pyridin-3-yl}-6-isopropylfuro[3,2-b]pyridine-3-carboxamide] | ≥ 8.00 | ≥ 8.00 | ≥ 8.00
COCCCc1cnc2c(C(=O)Nc3cnccc3N3C[C@@H](N)C[C@@H](C(F)(F)F)C3)c(N)oc2c1 [Example 131, 2-Amino-N-{4-[(3S,5R)-3-amino-5-(trifluoromethyl)piperidin-1-yl]pyridin-3-yl}-6-(3-methoxypropyl)furo[3,2-b]pyridine-3-carboxamide] | ≥ 8.00 | ≥ 8.00 | ≥ 8.00
Nc1oc2cc(CCCN3CCOCC3)cnc2c1C(=O)Nc1cnccc1N1C[C@@H](N)C[C@@H](C(F)(F)F)C1 [Example 132, 2-Amino-N-{4-[(3S,5R)-3-amino-5-(trifluoromethyl)piperidin-1-yl]pyridin-3-yl}-6-(3-morpholin-4-ylpropyl)furo[3,2-b]pyridine-3-carboxamide] | ≥ 8.00 | ≥ 8.00 | ≥ 8.00
C[C@@H]1C[C@H](N)C[C@H](c2ccncc2NC(=O)c2c(N)oc3cc(C4CC4)cnc23)C1 [Example 133, 2-Amino-N-{4-[(1R,3S,5S)-3-amino-5-methylcyclohexyl]pyridin-3-yl}-6-cyclopropylfuro[3,2-b]pyridine-3-carboxamide] | ≥ 8.00 | ≥ 8.00 | ≥ 8.00
COCCCc1cnc2c(C(=O)Nc3cnccc3N3C[C@H](C)C[C@H](N)C3)c(N)oc2c1 [Example 134, 2-Amino-N-{4-[(3S,5R)-3-amino-5-methylpiperidin-1-yl]pyridin-3-yl}-6-(3-methoxypropyl)furo[3,2-b]pyridine-3-carboxamide] | ≥ 8.00 | ≥ 8.00 | ≥ 8.00
CN(C)CCCc1cnc2c(C(=O)Nc3cnccc3N3C[C@@H](N)C[C@@H](C(F)(F)F)C3)c(N)oc2c1 [Example 135, 2-Amino-N-{4-[(3S,5R)-3-amino-5-(trifluoromethyl)piperidin-1-yl]pyridin-3-yl}-6-[3-(dimethylamino)propyl]furo[3,2-b]pyridine-3-carboxamide] | ≥ 8.00 | 7.00 to 8.00 | ≥ 8.00
Nc1oc2cccnc2c1C(=O)Nc1cnccc1[C@H]1C[C@@H](N)C[C@@H](C(F)(F)F)C1 [Example 136, 2-Amino-N-{4-[(1R,3R,5S)-3-amino-5-(trifluoromethyl)cyclohexyl]pyridin-3-yl}furo[3,2-b]pyridine-3-carboxamide] | ≥ 8.00 | 7.00 to 8.00 | ≥ 8.00
C[C@H]1CN(c2ccncc2NC(=O)c2c(N)oc3cc(CCCF)cnc23)C[C@@H](N)[C@@H]1O [Example 137, 2-Amino-N-(4-((3R,4R,5S)-3-amino-4-hydroxy-5-methylpiperidin-1-yl)pyridin-3-yl)-6-(3-fluoropropyl)furo[3,2-b]pyridine-3-carboxamide] | ≥ 8.00 | ≥ 8.00 | ≥ 8.00
Nc1oc2cc(CCN3CC[C@@H](F)C3)cnc2c1C(=O)Nc1cnccc1N1C[C@@H](N)C[C@@H](C(F)(F)F)C1 [Example 138, 2-Amino-N-{4-[(3S,5R)-3-amino-5-(trifluoromethyl)piperidin-1-yl]pyridin-3-yl}-6-{2-[(3R)-3-fluoropyrrolidin-1-yl]ethyl}furo[3,2-b]pyridine-3-carboxamide] | ≥ 8.00 | ≥ 8.00 | ≥ 8.00
CC(C)c1cnc2c(C(=O)Nc3cnccc3N3C[C@@H](N)[C@H](O)[C@@H](C)C3)c(N)sc2c1 [Example 139, 2-Amino-N-(4-((3R,4R,5S)-3-amino-4-hydroxy-5-methylpiperidin-1-yl)pyridin-3-yl)-6-isopropylthieno[3,2-b]pyridine-3-carboxamide] | ≥ 8.00 | ≥ 8.00 | ≥ 8.00
CCCc1cnc2c(C(=O)Nc3cnccc3N3C[C@@H](N)[C@H](O)[C@@H](C)C3)c(N)sc2c1 [Example 140, 2-Amino-N-(4-((3R,4R,5S)-3-amino-4-hydroxy-5-methylpiperidin-1-yl)pyridin-3-yl)-6-propylthieno[3,2-b]pyridine-3-carboxamide] | ≥ 8.00 | ≥ 8.00 | ≥ 8.00
CC(=O)Nc1cnc2c(C(=O)Nc3cnccc3N3C[C@@H](N)[C@H](O)[C@@H](C)C3)c(N)sc2c1 [Example 141, 6-(Acetylamino)-2-amino-N-{4-[(3R,4R,5S)-3-amino-4-hydroxy-5-methylpiperidin-1-yl]pyridin-3-yl}thieno[3,2-b]pyridine-3-carboxamide] | ≥ 8.00 | 7.00 to 8.00 | ≥ 8.00
C[C@H]1CN(c2ccncc2NC(=O)c2c(N)sc3cc(NC(=O)C4CC4)cnc23)C[C@@H](N)[C@@H]1O [Example 142, 2-Amino-N-(4-((3R,4R,5S)-3-amino-4-hydroxy-5-methylpiperidin-1-yl)pyridin-3-yl)-6-(cyclopropanecarboxamido)thieno[3,2-b]pyridine-3-carboxamide] | ≥ 8.00 | 7.00 to 8.00 | ≥ 8.00
CC(C)C(=O)Nc1cnc2c(C(=O)Nc3cnccc3N3C[C@@H](N)[C@H](O)[C@@H](C)C3)c(N)sc2c1 [Example 143, 2-Amino-N-(4-((3R,4R,5S)-3-amino-4-hydroxy-5-methylpiperidin-1-yl)pyridin-3-yl)-6-isobutyramidothieno[3,2-b]pyridine-3-carboxamide] | ≥ 8.00 | 7.00 to 8.00 | ≥ 8.00
Nc1sc2cc(N3CCOCC3)cnc2c1C(=O)Nc1cnccc1N1C[C@@H](N)C[C@@H](C(F)(F)F)C1 [Example 144, 2-Amino-N-(4-((3S,5R)-3-amino-5-(trifluoromethyl)piperidin-1-yl)pyridin-3-yl)-6-morpholinothieno[3,2-b]pyridine-3-carboxamide] | ≥ 8.00 | 7.00 to 8.00 | ≥ 8.00
